Measurements published in patent US8673376B2, “Polyphenol-containing composition for oral administration or external use and use of same” (Biotherapy Development Research Center Co., Ltd., priority 2009, dated 2014).
Blank lines part the entries; values can stand above or below the compound they belong to.

Legend:
[1] = test system: Human melanoma cells (HMVII); assay: Melanin production inhibition test, HMVII cells; assay type: cell-based; settings: control = 100
Excerpt: Human melanoma cells (HMVII) were the third or higher passage cultured in a culture solution of a Ham F-12 culture medium (manufactured by Nissui Pharmaceutical Co., Ltd.) containing 10% FBS, mixed with 0.5% penicillin-streptomycin (manufactured by Gibco). The test samples were the freeze-dried products of the hot water extract obtained in Preparation 1 (1) and the fractions eluted with 10% and 50% aqueous ethanol solutions obtained in Preparation 1 (2). […] The culture medium was removed, washed with PBS, and then 100 μL of a trypsin EDTA solution was added thereby removing the cells from the plate, and 900 μL of 1N sodium hydroxide aqueous solution was added. The cells were allowed to stand at room temperature for 20 to 24 hours thereby causing cytolysis, and then the melanin content was measured at an absorbance of 475 nm.

tyrosinase = assay: Tyrosinase activity inhibition test; assay type: biochemical; settings: DOPA substrate, control = 100
Method: (§1) The test samples were the freeze-dried products of the hot water extract obtained in Preparation 1 (1) and the fractions eluted with 10% and 50% aqueous ethanol solutions obtained in Preparation 1 (2).
0.5 mL of substrate (DOPA) solution adjusted to the final concentration of 0.03% with a phosphoric acid buffer was mixed with 0.5 mL of test sample solution prepared using a phosphoric acid buffer, and cooled on ice. 0.5 mL of tyrosinase solution adjusted to the final concentration of 45 U/mL with a phosphoric acid buffer was added to the mixture, incubated at 25° C. for 5 minutes, and then the absorbance at 475 nm was measured. The reaction rate (activity) of tyrosinase was calculated from the difference of the absorbance. In order to eliminate the influence of the color of the test sample, the absorbance of a mixture containing a phosphoric acid buffer in place of the tyrosinase solution was measured, thereby correcting the absorbance.

[2] = test system: Mouse melanoma cells B16F1; assay: Melanin production inhibition test, B16F1 cells; assay type: cell-based; settings: control = 100; for Melanin production rate: α-MSH 100 ng/mL, 72 hours
Method: Mouse melanoma cells B16F1 were the third or higher passage cultured in Dulbecco's Modified Eagle Medium (D-MEM) containing 10% FBS (manufactured by Nissui Pharmaceutical Co., Ltd.) mixed with 0.5% penicillin-streptomycin (manufactured by Gibco).
as §1
(a) Amount of Melanin Production • 960 μL of mouse cells B16F1 cultured in D-MEM culture medium containing 10% FBS was seeded on a 24-well plate to give a final concentration of 1.0×10^5 cells/well (seeding concentration: 1.04×10^5 cells/mL), and cultured for 24 hours in a CO^2 incubator. 20 μL of melanin production hormone (α-MSH) adjusted to a final concentration of 100 ng/mL (addition concentration: 5.0 μg/mL) and 20 μL of test sample adjusted to 10 μg/mL (500 μg/mL) or 100 μg/mL (5000 μg/mL) were added, and cultured for 72 hours. The culture medium was removed, washed with PBS, and then 100 μL of a trypsin EDTA solution was added thereby removing the cells from the plate, and 900 μL of 1N sodium hydroxide aqueous solution was added. The cells were allowed to stand at room temperature for 20 to 24 hours thereby causing cytolysis, and then the melanin content was measured at an absorbance of 475 nm.

Structure (SMILES): O=C1O[C@H]([C@@H](O)CO)C(O)=C1O [Ascorbic acid]
Melanin production rate after correction of survival rate ([1]; 10 μg/mL): 102.74%
Melanin production rate after correction of survival rate ([1]; 100 μg/mL): 95.60%
Melanin production rate ([1]; 100 μg/mL, α-MSH 100 ng/mL, 72 hours): 94.76%

Reaction rate of tyrosinase (tyrosinase; 10 μg/mL): 42.35%
Reaction rate of tyrosinase (tyrosinase; 100 μg/mL): 8.71%
Structure (SMILES): O=c1cc(CO)occ1O [Kojic acid]

Structure (SMILES): OC[C@H]1O[C@@H](Oc2ccc(O)cc2)[C@H](O)[C@@H](O)[C@@H]1O [β arbutin]
Melanin production rate after correction of survival rate ([2]; 10 μg/mL): 83.48%
Melanin production rate ([2]; 10 μg/mL): 95.41%
Melanin production rate after correction of survival rate ([2]; 100 μg/mL): 82.52%
Melanin production rate ([2]; 100 μg/mL): 93.76%
